System: stable CF patients
Experiment: Phase 2 study: CFQ-R questionnaire
Type: in vivo, human
Settings: for CFQ-R respiratory, mean change from baseline: MITT, Baseline to Day 28
Description: The following dosage regimens (as nebulizer loaded doses) were evaluated: 120 mg QD (daily); 240 mg QD (daily); and 240 mg BID (twice daily).
Patients were assessed on Day 1, 7, 14, and 28, and then up to 28 days after completion of study drug, namely, Days 42 and 56. The end of the study was defined as the last visit of the last patient.
Efficacy was evaluated by microbiologic assessment of sputum samples, time to need for anti-pseudomonal antimicrobials, the Cystic Fibrosis Questionaire-Revised (CFQ-R), and pulmonary function tests. […] Pair-wise comparisons between all the treatment arms were conducted as secondary analyses.
Patients completed the CFQ-R questionnaire with domains that included: respiratory, body image, digestion, eating, emotion, health perception, physical, role/school, social, treatment burden, vitality, and weight.

[1] = MITT population, 240 mg BID vs Placebo, baseline to visit 4
[2] = MITT population, 240 mg BID, baseline to visit 4
[3] = MITT population, Combined 240 mg QD and BID

`C[C@H]1COc2c(N3CCN(C)CC3)c(F)cc3c(=O)c(C(=O)O)cn1c23` [Levofloxacin, levofloxacin] was tested, and the “Respiratory domain of CFQ-R, Day 28, Mean” value (MITT population, 120 mg QD) was 64.6, the “Respiratory domain of CFQ-R, Day 28, Median” value (MITT population, 120 mg QD) was 66.7 and the “Respiratory domain of CFQ-R, Change from Baseline to Day 14, Mean” value (MITT population, 240 mg BID) was 7.5. The “Respiratory domain of CFQ-R, Change from Baseline to Day 14, Median” value (MITT population, 240 mg BID) was 5.6, the “Respiratory domain of CFQ-R, Change from Baseline to Day 28, Mean” value (MITT population, 240 mg BID) was 3.0 and the “Respiratory domain of CFQ-R, Change from Baseline to Day 28, Median” value (MITT population, 240 mg BID) was 0.0. For the same molecule, the “Respiratory domain of CFQ-R, Day 1, Mean” value (MITT population, 240 mg BID) was 60.5, the “Respiratory domain of CFQ-R, Day 1, Median” value (MITT population, 240 mg BID) was 61.1 and the “Respiratory domain of CFQ-R, Day 14, Mean” value (MITT population, 240 mg BID) was 68.4. For the same molecule, the “Respiratory domain of CFQ-R, Day 14, Median” value (MITT population, 240 mg BID) was 72.2, the “Respiratory domain of CFQ-R, Day 28, Mean” value (MITT population, 240 mg BID) was 64.4 and the “Respiratory domain of CFQ-R, Day 28, Median” value (MITT population, 240 mg BID) was 72.2. The “CFQ-R Body Image, LS Mean Difference” value [1] was −0.25, the “CFQ-R Digestion, LS Mean Difference” value [1] was 2.46 and the “CFQ-R Eating, LS Mean Difference” value [1] was 5.70. For the same molecule, the “CFQ-R Emotion, LS Mean Difference” value [1] was −0.09, the “CFQ-R Health Perception, LS Mean Difference” value [1] was 2.58 and the “CFQ-R Physical, LS Mean Difference” value [1] was 5.94. For the same molecule, the “CFQ-R Respiratory, LS Mean Difference” value [1] was 4.50, the “CFQ-R Role/School, LS Mean Difference” value [1] was −0.53 and the “CFQ-R Social, LS Mean Difference” value [1] was 2.37. The “CFQ-R Treatment Burden, LS Mean Difference” value [1] was 0.06, the “CFQ-R Vitality, LS Mean Difference” value [1] was 3.11 and the “CFQ-R Weight, LS Mean Difference” value [1] was 5.4. The “CFQ-R Body Image, LS Mean Change from Baseline” value [2] was 0.34, the “CFQ-R Digestion, LS Mean Change from Baseline” value [2] was 1.11 and the “CFQ-R Eating, LS Mean Change from Baseline” value [2] was 2.41. The “CFQ-R Emotion, LS Mean Change from Baseline” value [2] was 2.22, the “CFQ-R Health Perception, LS Mean Change from Baseline” value [2] was 0.52 and the “CFQ-R Physical, LS Mean Change from Baseline” value [2] was 3.14. For the same molecule, the “CFQ-R Respiratory, LS Mean Change from Baseline” value [2] was 4.06, the “CFQ-R Role/School, LS Mean Change from Baseline” value [2] was −1.94 and the “CFQ-R Social, LS Mean Change from Baseline” value [2] was 0.69. The “CFQ-R Treatment Burden, LS Mean Change from Baseline” value [2] was −0.93, the “CFQ-R Vitality, LS Mean Change from Baseline” value [2] was 1.23 and the “CFQ-R Weight, LS Mean Change from Baseline” value [2] was 10.06. For the same molecule, the “Respiratory domain of CFQ-R, Change from Baseline to Day 14, Mean” value (MITT population, 240 mg QD) was 1.4, the “Respiratory domain of CFQ-R, Change from Baseline to Day 14, Median” value (MITT population, 240 mg QD) was 0.0 and the “Respiratory domain of CFQ-R, Change from Baseline to Day 28, Mean” value (MITT population, 240 mg QD) was 0.3. The “Respiratory domain of CFQ-R, Change from Baseline to Day 28, Median” value (MITT population, 240 mg QD) was 0.0, the “Respiratory domain of CFQ-R, Day 1, Mean” value (MITT population, 240 mg QD) was 61.3 and the “Respiratory domain of CFQ-R, Day 1, Median” value (MITT population, 240 mg QD) was 61.1. For the same molecule, the “Respiratory domain of CFQ-R, Day 14, Mean” value (MITT population, 240 mg QD) was 63.0, the “Respiratory domain of CFQ-R, Day 14, Median” value (MITT population, 240 mg QD) was 66.7 and the “Respiratory domain of CFQ-R, Day 28, Mean” value (MITT population, 240 mg QD) was 61.6. The “Respiratory domain of CFQ-R, Day 28, Median” value (MITT population, 240 mg QD) was 66.7, the “Respiratory domain of CFQ-R, Change from Baseline to Day 14, Mean” value [3] was 4.5 and the “Respiratory domain of CFQ-R, Change from Baseline to Day 14, Median” value [3] was 5.5. For the same molecule, the “Respiratory domain of CFQ-R, Change from Baseline to Day 28, Mean” value [3] was 1.7, the “Respiratory domain of CFQ-R, Change from Baseline to Day 28, Median” value [3] was 0.0 and the “Respiratory domain of CFQ-R, Day 1, Mean” value [3] was 60.9. For the same molecule, the “Respiratory domain of CFQ-R, Day 1, Median” value [3] was 61.1, the “Respiratory domain of CFQ-R, Day 14, Mean” value [3] was 65.8 and the “Respiratory domain of CFQ-R, Day 14, Median” value [3] was 69.4. The “Respiratory domain of CFQ-R, Day 28, Mean” value [3] was 63.0, the “Respiratory domain of CFQ-R, Day 28, Median” value [3] was 66.7 and the “CFQ-R respiratory, mean change from baseline” value (shortened to “CFQ-R respiratory, mean change”) (120 mg QD) was 0.3 units. For the same molecule, the “CFQ-R respiratory, mean change” value (240 mg BID) was 1.7 units and the “CFQ-R respiratory, mean change” value (240 mg QD) was 3.0 units.

— patent publication US10792289B2 (Horizon Orphan LLC, priority 2009, dated 2020)
